Five compounds from patent publication US20070123508A1, “PAR2-modulating compounds and their use” (priority 2005, published 2007) can be followed below.

The experiment addresses T1, human PAR2 (Homo sapiens, UniProt P55085).
T1 construct: expressed in transfected cells; host or cells: NIH3T3 cells, transiently transfected; receptor in pSI-derived mammalian expression vector
T1 sequence (P55085 26-397): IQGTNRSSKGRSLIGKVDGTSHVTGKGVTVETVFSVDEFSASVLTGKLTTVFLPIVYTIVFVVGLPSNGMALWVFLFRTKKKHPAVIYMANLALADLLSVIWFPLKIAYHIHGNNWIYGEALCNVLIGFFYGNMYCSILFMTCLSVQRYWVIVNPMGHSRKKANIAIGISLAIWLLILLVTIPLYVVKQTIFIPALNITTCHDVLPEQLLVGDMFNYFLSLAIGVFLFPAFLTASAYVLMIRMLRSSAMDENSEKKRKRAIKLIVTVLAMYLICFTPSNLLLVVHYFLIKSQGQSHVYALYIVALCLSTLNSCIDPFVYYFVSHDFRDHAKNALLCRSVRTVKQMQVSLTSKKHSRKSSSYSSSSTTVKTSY
Nature of the experiment: Receptor Selection and Amplification Technology (R-SAT) functional receptor assay. The experiment is classed as cell-based. The following applies: for EC50: NIH3T3 cells transfected with PAR2, negative log of EC50 (molar); for Emax: percent maximum activation relative to the ligand SLIGRL, read-out: % Efficacy. Here is the method:
The functional receptor assay, Receptor Selection and Amplification Technology (R-SAT), was used to investigate the pharmacological properties of known and novel PAR2 compounds. R-SAT is disclosed in U.S. Pat. Nos. 5,707,798, 5,912,132, and 5,955,281, all of which are hereby incorporated herein by reference in their entirety, including any drawings.
Briefly, NIH3T3 cells were grown in 96 well tissue culture plates to 70-80% confluence. Cells were transfected for 16-20 h with plasmid DNAs using Polyfect (Qiagen Inc.) using the manufacturer's protocols. R-SATs were generally performed with 4 ng/well of receptor and 20 ng/well of β-galactosidase plasmid DNA. All receptor constructs used were in the pSI-derived mammalian expression vector (Promega Inc). The PAR2 gene was amplified by PCR from genomic DNA using oligodeoxynucleotide primers based on the published sequence (GenBank Accession # Z49993 and Z49994). For large-scale transfections, cells were transfected for 16-20 h, then trypsinized and frozen in DMSO. Frozen cells were later thawed, plated at ˜10,000 cells per well of a 96 half-area well plate that contained drug. With both methods, cells were then grown in a humidified atmosphere with 5% ambient CO2 for five days. Media was then removed from the plates and marker gene activity was measured by the addition of the β-galactosidase substrate o-nitrophenyl β-D-galactopyranoside (ONPG) in PBS with 0.5% NP-40. The resulting colorimetric reaction was measured using a spectrophotometric plate reader (Titertek Inc.) at 420 nm. All data was analyzed using the XLFit (IDBSm) computer program. Efficacy is the percent maximum activation compared to activation by a control compound (SLIGRLm). pEC50 is the negative of the log(EC50), where EC50 is the calculated as a molar concentration (M) that produces 50% maximal activation.
These experiments provide a molecular profile, or fingerprint, for each of these agents at the human PAR2.
Efficacy is relative to the ligand SLIGRL.

The EC50 is the concentration giving half of the maximal effect. A lower EC50 goes with a more potent agent. Take `CC(=NNC(=O)C1C(=O)NCC1c1ccccc1)c1cc(Br)cs1` (mixture of isomers) [Compound 6, 2-Oxo-4-phenyl-3-pyrrolidinecarboxylic acid [1-(4-bromo-thiophen-2-yl)-(E/Z)-ethylidene]-hydrazide]: the 50% effective concentration (EC50) is 398 nM and the Emax is 109%.
The matching figures for `CC(=NNC(=O)C1C(=O)NCC1c1ccccc1)c1cccc(Br)c1` (mixture of isomers) [Compound 3, 2-Oxo-4-phenyl-3-pyrrolidinecarboxylic acid [1-(3-bromo-phenyl)-(E/Z)-ethylidene]-hydrazide]: 39.8 nM and 134%.
For `CC(=NNC(=O)C1C(=O)NCC1c1ccccc1)c1cccs1` (mixture of isomers) [Compound 5, 2-Oxo-4-phenyl-3-pyrrolidinecarboxylic acid [1-(thiophen-2-yl)-(E/Z)-ethylidene]-hydrazide], it took 1580 nM to reach a half-maximal effect (EC50) and the Emax came out at 52%.
Taken in the same sequence, the figures for `CC(=NNC(=O)C1C(=O)NCC1c1ccccc1)c1ccc(Br)s1` (mixture of isomers) [Compound 4, 2-Oxo-4-phenyl-3-pyrrolidinecarboxylic acid [1-(5-bromo-thiophen-2-yl)-(E/Z)-ethylidene]-hydrazide] were 631 nM and 87%.
The matching figures for `CC(=NNC(=O)C1C(=O)NCC1c1ccccc1)c1cncc(Br)c1` (mixture of isomers) [Compound 7, 2-Oxo-4-phenyl-3-pyrrolidinecarboxylic acid [1-(5-bromo-pyridine-3-yl)-(E/Z)-ethylidene]-hydrazide]: 794 nM and 106%.
